Measurements reported in article PMC6540792 (Journal of medicinal chemistry, 2018).

Experiments:
[1] = target: T1, BRAF^R509H/R506A/W450A (Homo sapiens, UniProt P15056, A688R/F667E/I543A/I544S/I551K/K630S/K723G/L588N/L706S/L716E/P722S/Q562R/Q709R/R506A/R509H/S713E/W450A/Y673S); assay: AUC sedimentation velocity; details: 25 μM, Figure 8b
[2] = target: T2, BRAF^WT (Homo sapiens, UniProt P15056, A688R/F667E/I543A/I544S/I551K/K630S/K723G/L588N/L706S/L716E/P722S/Q562R/Q709R/S713E/Y673S); assay: AUC sedimentation velocity; details: Figure 4b; vemurafenib 15 μM (Figure 8)
[3] = system: wild-type or mutant BRAF and CRAF; details: cited from earlier work
[4] = target: T2, BRAF^WT; assay: Limited proteolysis with trypsin; details: 200 μM inhibitor, trypsin 30 minutes
[5] = target: BRAF^W450A (Homo sapiens, UniProt P15056, A688R/F667E/I543A/I544S/I551K/K630S/K723G/L588N/L706S/L716E/P722S/Q562R/Q709R/S713E/W450A/Y673S); assay: AUC sedimentation velocity; details: TAK632 at 15-25 μM, Figure 8a
[6] = target: BRAF^R506A (Homo sapiens, UniProt P15056, A688R/F667E/I543A/I544S/I551K/K630S/K723G/L588N/L706S/L716E/P722S/Q562R/Q709R/R506A/S713E/Y673S); assay: AUC sedimentation velocity; details: TAK632 at 15-25 μM, Figure 8a
[7] = target: T1, BRAF^R509H/R506A/W450A; assay: AUC sedimentation equilibrium; details: in the presence of TAK632
[8] = target: BRAF^V600E (Homo sapiens, UniProt P15056, A688R/F667E/I543A/I544S/I551K/K630S/K723G/L588N/L706S/L716E/P722S/Q562R/Q709R/S713E/V600E/Y673S); assay: AUC sedimentation velocity; details: Figure 4c; vemurafenib 15 μM (Figure 8)
[9] = target: BRAF^WT (Homo sapiens, UniProt P15056); assay: ELISA kinase assay, phosphorylation of GST-MEK by purified BRAF kinase domain; type: biochemical; details: Figure 5b
[10] = target: T2, BRAF^WT; assay: Differential Scanning Calorimetry; type: binding; details: 37 μM protein

## N#Cc1c(Oc2ccc(F)c(NC(=O)Cc3cccc(C(F)(F)F)c3)c2)ccc2nc(NC(=O)C3CC3)sc12 [TAK632, N-{7-Cyano-6-[4-fluoro-3-({[3-(trifluoromethyl)phenyl]acetyl}amino)phenoxy]-1,3-benzothiazol-2-yl}cyclopropanecarboxamide]
[1]
  oligomeric state of BRAF^R509H/R506A/W450A on adding inhibitor: sediments less broadly and more closely to that of a monomer peak
[2]
  oligomeric state of BRAF^WT on adding inhibitor: form dimeric species
[3]
  IC50 values: low nanomolar range
[4]
  trypsin digestion pattern of BRAF^WT: species A becomes a minor band, while species B and C become major bands
[5]
  oligomeric state of BRAF^W450A on adding inhibitor: complete dimerization
[6]
  oligomeric state of BRAF^R506A on adding inhibitor: complete dimerization
[7]
  molecular weight: 47,000 kDa
[8]
  oligomeric state of BRAF^V600E on adding inhibitor: form dimeric species

## N#Cc1c(Oc2ccc(F)c(NC(=O)Cc3cccc(C(F)(F)F)c3)c2)ccc2nc(NC(=O)COCCOCCOCC(=O)Nc3nc4ccc(Oc5ccc(F)c(NC(=O)Cc6cccc(C(F)(F)F)c6)c5)c(C#N)c4s3)sc12 [TAK-2-TAK]
[4]
  trypsin digestion pattern of BRAF^WT: digestion pattern resembling that of unliganded BRAF^WT
[9]
  fold reduced potency relative to TAK632: ~12 fold
[10]; 75 μM inhibitor
  melting temperature of BRAF^WT, higher transition: 58.65 °C
[10]; 125 μM inhibitor
  melting temperature of BRAF^WT, higher transition: 59.6 °C
[10]; 250 μM inhibitor
  melting temperature of BRAF^WT, higher transition: 62.64 °C

## N#Cc1c(Oc2ccc(F)c(NC(=O)Cc3cccc(C(F)(F)F)c3)c2)ccc2nc(NC(=O)COCCOCCOCCOCCOCC(=O)Nc3nc4ccc(Oc5ccc(F)c(NC(=O)Cc6cccc(C(F)(F)F)c6)c5)c(C#N)c4s3)sc12 [TAK-4-TAK]
[9]
  fold reduced potency relative to TAK632: ~12 fold

## N#Cc1c(Oc2ccc(F)c(NC(=O)Cc3cccc(C(F)(F)F)c3)c2)ccc2nc(NC(=O)COCCOCCOCC(=O)Nc3nccs3)sc12 [TAK-L-C]
[4]
  trypsin digestion pattern of BRAF^WT: species A becomes a minor band, while species B and C become major bands
[9]
  fold reduced potency relative to TAK632: ~4 fold

## CCCS(=O)(=O)Nc1ccc(F)c(C(=O)c2c[nH]c3ncc(-c4ccc(Cl)cc4)cc23)c1F [vemurafenib]
[2]
  oligomeric state of BRAF^WT on adding inhibitor: monomers were stabilized
[4]
  trypsin digestion pattern of BRAF^WT: species A as the major band, with negligible amounts of species B and C
[8]
  oligomeric state of BRAF^V600E on adding inhibitor: dimers were disrupted
